Measured values from patent publication US20090123565A9, “Copper-dependent non-traditional pro-inflammatory cytokine export and methods, compositions and kits relating thereto” (Maine Medical Center Research Institute, priority 2001, published 2009).

Columns and labels:
[1] = test system: balloon-injured rat carotid artery; assay: S100A13, IL1, p40, PS expression in balloon-injured vessel wall (immunohistochemistry); assay type: in vivo, Sprague-Dawley rats
Procedure: In order to address the mechanisms underlying the effect of copper chelation on neointima formation, TTM was administered for 2 weeks before the balloon injury and daily after that until the animals were euthanized at the 4th and 7th day after the procedure. Accordingly, TTM-free animals euthanized 4 and 7 days after the injury were used as controls.
To evaluate S100A13, FGF1, p40 and IL-1α expression in balloon-injured arteries, paraffin-embedded specimens from the 4th, 7th and 14th day after the injury were cut into 5-μm cross sections, and mounted on glass slides. These sections were incubated in 10% hydrogen peroxide for 90 minutes to block endogenous peroxidase activity. Nonspecific binding was prevented by preincubating the sections with 5% bovine serum albumin (BSA; Sigma) in PBS. The sections were sequentially incubated with polyclonal rabbit anti-S100A13 antibody at a concentration of 1:200; polyclonal rabbit anti-FGF1 antibody at a concentration of 1:500; monoclonal mouse anti-p40 antibody at a concentration of 1:100; polyclonal rabbit anti-IL-1a antibody at a concentration of 1:50; phosphatidylserine (PS) antibody. After they were washed with PBS, the sections were incubated with anti-rabbit and anti-mouse IgG-conjugated horseradish peroxidase (Biorad) for an additional 30 minutes at room temperature. Each incubation was followed by a wash in PBS. Staining was visualized using the chromogen 0.06% 3,3′-diaminobenzidine/5% hydrogen peroxide in 0.05 mol/L Tris-HCl (pH 7.6). Control sections were incubated with nonimmune rabbit IgG at a concentration of 1:200.

[2] = test system: IL1α release from NIH 3T3 cell transfectants; assay: Heat shock-induced release of IL1α from NIH 3T3 cell transfectants (immunoblot of conditioned media); assay type: cell-based, human
Procedure: FIG. 5, comprising FIGS. 5A and 5B, depict the involvement of Cu^2+ in IL1α release. FIG. 5A is an image depicting results obtained using NIH 3T3 cells stably transfected with mIL1α-βGal. The cells were incubated for 18 hours at 37 C in the absence and presence of the Cu^2+ chelator, tetrathiomolybdate (TTM) as indicated and the untreated and treated cells either maintained at 37 C or subjected to heat shock as described in FIG. 3. The conditioned medium was evaluated for IL1α-βGal release by IL1α immunoblot analysis, and cell lysates from TTM-treated cells were used to monitor the intracellular level of IL1α-βGal expression. […] FIG. 5B is an image depicting release of IL1α-βGal in myc-S100A13 and IL1α-βGal NIH 3T3 cell cotransfectants and in insert-less vector and mIL1α-βGal NIH 3T3 cell transfectants in the presence and absence actinomycin D (10 μg/ml), as indicated, in response to heat shock. Conditioned media were processed and evaluated for IL1α-βGal immunoblot analysis as described in Tarantini et al. (2001).
Stable NIH 3T3 cell transfectants were generated accordingly with the following cDNA constructs cloned into pMEXneo (Tarantini, et al. 2001; Tarantini, et al. 1995; Tarantini, et al. 1998; LaVallee, et al. 1998; Carreira, et al. 1998; Landriscina, et al., 2001): human S100A13 with an amino-terminal fusion to a 6 Myc Tag (Myc-S100A13) (Landriscina, et al., 2001); human Myc-S100A13ΔBR (Landriscina, et al., 2001); human mIL1α (residues 113-271); human mIL1α with a carboxy-terminal fusion to a βGalactosidase tag (mIL1α-βGal) (Tarantini, et al. 2001); and pIL1α (residues 1-271) with a carboxy-terminal fusion to βGalactosidase (pIL1α-βGal) (Tarantini, et al. 2001). Recombinant human mIL1α was provided by Hoffmann-LaRoche. Recombinant human S100A13, as well as S100A13ΔBR, a S100A13 construct with the basic residue rich domain (residues 88 to 98) deleted, were generated as previously described (Landriscina, et al., 2001).
NIH 3T3 cell transfectants were grown to 70-80% confluency and prior to temperature stress, the cells were washed with serum-free DMEM. The heat shock was performed as previously described (Tarantini et al., 1995) in serum-free DMEM for 110 min at 42° C. Control cultures were incubated at 37° C. in serum-free DMEM. […] Immunoprecipitated and eluted proteins were resolved by 8% and 12% acrylamide SDS-PAGE, respectively, and evaluated by either IL1α (Tarantini, et al. 2001) or Myc (Landriscina, et al., 2001) immunoblot analysis. […] The effects of actinomycin D (Sigma Chemical Co., St. Louis, Mo.), cyclohexamide (Sigma) and tetrathiomolybdate (Sigma-Aldrich) on IL1α release were evaluated as previously reported (LaVallee et al., 1998).

[NH4+].[NH4+].[SH-].[SH-].[S]=[Mo]=[S] [TTM, ammonium tetrathiomolybdate]
S100A13, IL1 and PS staining in the neointima ([1]; 4 and 7 days after injury): no positive staining was detected | IL1 positive staining ([1]; 7 and 14 days after the balloon injury): almost complete inhibition | presence of S100A13 compared to the controls ([1]; 7 and 14 days after the injury): significantly decreased | S100A13, IL1 and PS staining in the neointima ([1]; 14 days after the injury): only a few cells were positively stained | phosphatidylserine flipping ([1]; balloon-injured arteries, controls did show it): did not show phosphatidylserine flipping | concentration at which TTM inhibited release of IL1α in response to heat shock ([2]; NIH 3T3 cells stably transfected with mIL1α-βGal, incubated 18 hours at 37 C with TTM, then heat shock, IL1α immunoblot (FIG. 5A)): 250 nM | repression of release of IL1α-βGal in response to temperature stress ([2]; TTM introduced into the Myc-S100A13 and IL1α-βGal cotransfectant system with actinomycin D): able to repress
